# Experiment: Tobramycin release study from CMHA-S/PEGDA films (OPA fluorescence assay)
# Assay type: physicochemical
# Description: Tobramycin sulfate (2 mg/film) and tobramycin free base (2 mg/film) were used for this study. As tobramycin absorbs UV weakly, OPA assay and measuring fluorescence were used to calculate cumulative release of tobramycin. Amount of release tobramycin was calculated from standard curve. The accumulated release amount of tobramycin was more than 1 mg (thus more than 50% release) over 7 days.
# Drug-loaded films were placed in PBS for the antibiotic release study. The fluid was removed and assayed daily. For tobramycin, detection was performed using an O-phthaldialdehyde (OPA) reagent. OPA, in the presence of reduced sulfhydryl groups, reacts with the primary amine group in tobramycin to form fluorescent moieties. The fluorescence was measured at an excitation wavelength of 360 nm, and an emission wavelength of 460 nm. The amount of released drug was calculated using a standard solution of tobramycin. For moxifloxacin, UV absorption at 293 nm was used to measure the amount of released drug. The amount of released drug was calculated using a standard solution of moxifloxacin. This removed fluid was also used to assess the bactericidal capability of released antibiotic by the disk diffusion method on agar plates seeded with S. aureus and P. aeruginosa measuring zone of inhibition (ZOI). Similar ZOI bacterial work was also performed using the actual films by an outside lab, Analytical Resource Lab (ARL, Salt Lake City, Utah).
# Each film contained 40 μg of tobramycin free base. CMHA-S films were made with 3 different crosslinking ratios: 1.5, 2.0, or 2.5. As tobramycin absorbs UV weakly, OPA assay was used to measure fluorescence using low concentrations of tobramycin. The amount of released tobramycin was calculated from a standard curve. The accumulated released amount of tobramycin was more than 20 μg (thus more than 50% release) over 7 days. The release increased continuously up to day 3 and remained unchanged for the different thiol to acrylate ratios.
structure (smiles),measurement,setting,value
NC[C@H]1O[C@H](O[C@H]2[C@H](O)[C@@H](O[C@H]3O[C@H](CO)[C@@H](O)[C@H](N)[C@H]3O)[C@H](N)C[C@@H]2N)[C@H](N)C[C@@H]1O [tobramycin],release of tobramycin (share of load),"40 μg tobramycin free base per film, over 7 days (FIG. 5)",more than 50%
same,accumulated released amount of tobramycin,"40 μg tobramycin free base per film, thiol to acrylate 1.5, 2.0, 2.5, over 7 days (FIG. 5)",more than 20 μg
same,accumulated release amount of tobramycin,"2 mg/film tobramycin sulfate or free base, thiol to acrylate 1.5 and 2.0, over 7 days (FIG. 3)",more than 1 mg
same,release of tobramycin (share of load),"2 mg/film, over 7 days (FIG. 3)",more than 50%

# From patent US9782345B2, “Ocular composition and method” (Jade Therapeutics, Inc, priority 2013, dated 2017)
